Data taken from patent US11986471B2, “Compounds and methods of use” (Tango Therapeutics, Inc., priority 2018, dated 2024).

Experiments:
HAP1 MTAP-deleted = assay: SDMA in-cell western assay, HAP1 MTAP-deleted cell line; type: cell-based; details: for IC50: Homo sapiens, HAP1 MTAP-deleted cell line; for MTAP Intact/Deleted Ratio: IC50 ratio HAP1 MTAP-intact / HAP1 MTAP-deleted
Summary of the method: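 IC50 from SDMA in-cell western; HAP1 line lacking MTAP (null), paired isogenically with MTAP-intact HAP1 expressing endogenous MTAP.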

PRMT5 [1] = molecular target: T1, PRMT5 (Homo sapiens, UniProt O14744); assay: PRMT5 IC50 assay in the presence of SAM as cofactor; type: biochemical
T1 construct: purchased Viva (custom protein)
Summary of the method: (§1)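 Each compound is tested on PRMT5 in the presence of SAM, of MTA, and without any cofactor. Ki values are then back-calculated using fixed factors of 1.5 (SAM) and 13.5 (MTA), and the two Ki values are compared as a ratio.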

HAP1 MTAP-intact = assay: SDMA in-cell western assay, HAP1 MTAP-intact cell line; type: cell-based; details: Homo sapiens
Summary of the method: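 HAP1 isogenic pair: endogenous MTAP vs MTAP-null. Readout SDMA by in-cell western; IC50 per line. Ratio ≥3 fold = MTAP-selective.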

PRMT5 [2] = molecular target: T1, PRMT5; assay: PRMT5 IC50 assay in the presence of MTA as cofactor; type: biochemical; details: for IC50: PRMT5, MTA as cofactor; for SAM/MTA Ratio: ratio between the Ki in the presence of SAM and the Ki in the presence of MTA
Summary of the method: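 Three cofactor conditions tested for PRMT5 inhibition: none, MTA and SAM, each giving an IC50. For conversion to Ki, the MTA-condition IC50 is divided by 13.5 and the SAM-condition IC50 by 1.5, and the two Ki values are expressed as a SAM/MTA ratio.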

PRMT5 [3] = molecular target: T1, PRMT5; assay: PRMT5 IC50 assay with no cofactor; type: biochemical
Summary of the method: as §1

T1 sequence (O14744 whole entry): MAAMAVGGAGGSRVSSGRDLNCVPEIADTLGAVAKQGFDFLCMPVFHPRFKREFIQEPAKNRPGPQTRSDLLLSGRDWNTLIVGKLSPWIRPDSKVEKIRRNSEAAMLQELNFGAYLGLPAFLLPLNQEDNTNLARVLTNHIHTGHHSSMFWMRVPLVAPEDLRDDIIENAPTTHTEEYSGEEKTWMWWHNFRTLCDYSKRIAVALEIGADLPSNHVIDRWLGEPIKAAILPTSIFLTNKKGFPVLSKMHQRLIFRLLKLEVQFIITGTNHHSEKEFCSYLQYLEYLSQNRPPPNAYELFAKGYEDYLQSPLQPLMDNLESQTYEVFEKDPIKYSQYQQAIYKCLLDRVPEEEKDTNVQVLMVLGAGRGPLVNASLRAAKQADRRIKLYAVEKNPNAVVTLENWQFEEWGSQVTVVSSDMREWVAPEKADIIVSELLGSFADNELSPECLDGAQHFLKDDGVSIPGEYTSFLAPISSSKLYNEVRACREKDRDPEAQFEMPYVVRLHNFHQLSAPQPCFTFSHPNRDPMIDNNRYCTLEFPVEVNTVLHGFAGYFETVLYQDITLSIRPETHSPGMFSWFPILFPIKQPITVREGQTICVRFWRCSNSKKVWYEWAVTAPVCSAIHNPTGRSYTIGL
T1 sequence (Q9BQA1 whole entry partner): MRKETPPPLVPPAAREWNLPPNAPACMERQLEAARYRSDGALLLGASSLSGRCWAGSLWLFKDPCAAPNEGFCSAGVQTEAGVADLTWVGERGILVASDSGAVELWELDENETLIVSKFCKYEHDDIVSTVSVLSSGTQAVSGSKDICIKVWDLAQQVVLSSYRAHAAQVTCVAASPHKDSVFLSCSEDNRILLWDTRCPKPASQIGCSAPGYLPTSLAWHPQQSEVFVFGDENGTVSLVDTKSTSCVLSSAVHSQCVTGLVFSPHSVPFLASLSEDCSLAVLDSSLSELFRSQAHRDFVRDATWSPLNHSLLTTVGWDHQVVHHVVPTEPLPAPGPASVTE

IC50 (HAP1 MTAP-deleted)	IC50 (PRMT5 [1])	IC50 (HAP1 MTAP-intact)	IC50 (PRMT5 [2])	IC50 (PRMT5 [3])	Structure (SMILES)	MTAP Intact/Deleted Ratio (HAP1 MTAP-deleted)	SAM/MTA Ratio (PRMT5 [2])
< 1000 nM	50 to 500 nM	≥ 10000 nM	50 to 500 nM	50 to 500 nM	COCCN(C)c1cc(C(=O)NC[C@H](O)CN2CCc3cc(OCc4ocnc4C)c(F)cc3C2)cc(NC2CCN(C(C)=O)CC2)n1 [Compound 612, 2-[(1-acetyl-4-piperidyl)amino]-N-[(2S)-3-[7-fluoro-6-[(4-methyloxazol-5-yl)methoxy]-3N-dihydro-1H-isoquinolin-2-yl]-2-hydroxy-propyl]-6-[2-methoxyethyl(methyl)amino]pyridine-4-carboxamide]	A* (an IC50 ratio greater than or equal to 10 fold between the IC50 in the HAP1 MTAP-intact cell line and the HAP1 MTAP-deleted cell line)	A (a Ki ratio greater than or equal to 10 fold between the Ki in the presence of SAM and the Ki in the presence of MTA)
< 1000 nM	50 to 500 nM	1000 to 10000 nM	50 to 500 nM	500 to 5000 nM	Cc1ncoc1COc1ccc2c(c1)CCN(C[C@@H](O)CNC(=O)c1cc(NC3CCC3)ncc1F)C2 [Compound 614, (S)-2-(cyclobutylamino)-5-fluoro-N-(2-hydroxy-3-(6-((4-methyloxazol-5-yl)methoxy)-3,4-dihydroisoquinolin-2(1H)-yl)propyl)isonicotinamide]	C* (an IC50 ratio of less than 3 fold between the IC50 in the HAP1 MTAP-intact cell line and the HAP1 MTAP-deleted cell line)	A (a Ki ratio greater than or equal to 10 fold between the Ki in the presence of SAM and the Ki in the presence of MTA)
< 1000 nM	50 to 500 nM	1000 to 10000 nM	50 to 500 nM	500 to 5000 nM	CC(=O)N1CCN(c2cc(C(=O)NC[C@H](O)CN3CCc4cc(OCc5ocnc5C)c(F)cc4C3)cc(NC3CCC3)n2)CC1 [Compound 615, 2-(4-acetylpiperazin-1-yl)-6-(cyclobutylamino)-N-[(2S)-3-[7-fluoro-6-[(4-methyloxazol-5-yl)methoxy]-3,4-dihydro-1H-isoquinolin-2-yl]-2-hydroxy-propyl]pyridine-4-carboxamide]	A* (an IC50 ratio greater than or equal to 10 fold between the IC50 in the HAP1 MTAP-intact cell line and the HAP1 MTAP-deleted cell line)	A (a Ki ratio greater than or equal to 10 fold between the Ki in the presence of SAM and the Ki in the presence of MTA)
< 1000 nM	50 to 500 nM	1000 to 10000 nM	< 50 nM	500 to 5000 nM	Cc1ncoc1COc1ccc2c(c1)CCN(C[C@@H](O)CNC(=O)c1cc(NC3CCN(C(=O)C(C)(C)C)CC3)ncn1)C2 [Compound 616, 6-{[1-(2,2-dimethylpropanoyl)piperidin-4-yl]amino}-N-[(2S)-2-hydroxy-3-{6-[(4-methyl-1,3-oxazol-5-yl)methoxy]-1,2,3,4-tetrahydroisoquinolin-2-yl}propyl]pyrimidine-4-carboxamide]	C* (an IC50 ratio of less than 3 fold between the IC50 in the HAP1 MTAP-intact cell line and the HAP1 MTAP-deleted cell line)	A (a Ki ratio greater than or equal to 10 fold between the Ki in the presence of SAM and the Ki in the presence of MTA)
1000 to 10000 nM	50 to 500 nM	≥ 10000 nM	50 to 500 nM	500 to 5000 nM	CC(=O)N1CCC(Nc2cc(C(=O)NC[C@H](O)CN3CCc4nc(OCc5ocnc5C)ccc4C3)ccn2)CC1 [Compound 617, 2-[(1-acetyl-4-piperidyl)amino]-N-[(2S)-2-hydroxy-3-[2-[(4-methyloxazol-5-yl)methoxy]-7,8-dihydro-5H-1,6-naphthyridin-6-yl]propyl]pyridine-4-carboxamide]	C* (an IC50 ratio of less than 3 fold between the IC50 in the HAP1 MTAP-intact cell line and the HAP1 MTAP-deleted cell line)	–
1000 to 10000 nM	50 to 500 nM	≥ 10000 nM	50 to 500 nM	500 to 5000 nM	CC(=O)N1CCC(Nc2cc(C(=O)NC[C@H](O)CN3CCc4c(C)c(OCc5ocnc5C)cc(F)c4C3)ncn2)CC1 [Compound 618, 6-[(1-acetyl-4-piperidyl)amino]-N-[(2S)-3-[8-fluoro-5-methyl-6-[(4-methyloxazol-5-yl)methoxy]-3,4-dihydro-1H-isoquinolin-2-yl]-2-hydroxy-propyl]pyrimidine-4-carboxamide]	B* (an IC50 ratio greater than or equal to 3 fold but lower than 10 fold between the IC50 in the HAP1 MTAP-intact cell line and the HAP1 MTAP-deleted cell line)	–
1000 to 10000 nM	50 to 500 nM	≥ 10000 nM	50 to 500 nM	500 to 5000 nM	Cc1ncoc1COc1cc(F)c2c(c1C)CCN(C[C@@H](O)CNC(=O)c1ccnc(NC3CCC3)c1)C2 [Compound 619, 2-(cyclobutylamino)-N-[(2S)-3-[8-fluoro-5-methyl-6-[(4-methyloxazol-5-yl)methoxy]-3,4-dihydro-1H-isoquinolin-2-yl]-2-hydroxy-propyl]pyridine-4-carboxamide]	C* (an IC50 ratio of less than 3 fold between the IC50 in the HAP1 MTAP-intact cell line and the HAP1 MTAP-deleted cell line)	–
< 1000 nM	50 to 500 nM	< 1000 nM	50 to 500 nM	500 to 5000 nM	Cc1ncoc1COc1ccc2c(c1)CCN(C[C@@H](O)CNC(=O)c1ccnc(NC3CC4(CC4)C3)c1)C2 [Compound 621, (S)—N-(2-hydroxy-3-(6-((4-methyloxazol-5-yl)methoxy)-3,4-dihydroisoquinolin-2(1H)-yl)propyl)-2-(spiro[2.3]hexan-5-ylamino)isonicotinamide]	B* (an IC50 ratio greater than or equal to 3 fold but lower than 10 fold between the IC50 in the HAP1 MTAP-intact cell line and the HAP1 MTAP-deleted cell line)	A (a Ki ratio greater than or equal to 10 fold between the Ki in the presence of SAM and the Ki in the presence of MTA)
< 1000 nM	50 to 500 nM	≥ 10000 nM	< 50 nM	500 to 5000 nM	CC(=O)N1CCC(Nc2cc(C(=O)NC[C@H](O)CN3CCc4cc(OCc5ocnc5C)ccc4C3)ccn2)CC1 [Compound 622, (S)-2-((1-acetylpiperidin-4-yl)amino)-N-(2-hydroxy-3-(6-((4-methyloxazol-5-yl)methoxy)-3,4-dihydroisoquinolin-2(1H)-yl)propyl)isonicotinamide]	A* (an IC50 ratio greater than or equal to 10 fold between the IC50 in the HAP1 MTAP-intact cell line and the HAP1 MTAP-deleted cell line)	A (a Ki ratio greater than or equal to 10 fold between the Ki in the presence of SAM and the Ki in the presence of MTA)
< 1000 nM	50 to 500 nM	1000 to 10000 nM	50 to 500 nM	50 to 500 nM	CC(=O)N1CCC(Nc2cc(C(=O)NC[C@H](O)CN3CCc4cc(OCc5ocnc5C)c(F)cc4C3)cc(N3CCCCC3)n2)CC1 [Compound 623]	A* (an IC50 ratio greater than or equal to 10 fold between the IC50 in the HAP1 MTAP-intact cell line and the HAP1 MTAP-deleted cell line)	A (a Ki ratio greater than or equal to 10 fold between the Ki in the presence of SAM and the Ki in the presence of MTA)
